Measured values: PMC10359459 (Nucleic Acids Research, 2023)

Target: T1, BldD (Saccharopolyspora erythraea, UniProt A4FBF9)
T1 sequence (A4FBF9 1-162): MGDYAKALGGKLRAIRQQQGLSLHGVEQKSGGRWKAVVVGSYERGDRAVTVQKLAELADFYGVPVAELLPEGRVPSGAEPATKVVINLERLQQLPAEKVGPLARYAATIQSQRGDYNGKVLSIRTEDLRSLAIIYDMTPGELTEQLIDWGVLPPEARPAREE
Experiment: isothermal titration calorimetry
Assay type: binding

Nc1nc2c(ncn2[C@@H]2O[C@@H]3CO[P@](=O)(O)O[C@H]4[C@@H](O)[C@H](n5cnc6c(=O)[nH]c(N)nc65)O[C@@H]4CO[P@](=O)(O)O[C@H]3[C@H]2O)c(=O)[nH]1 [c-di-GMP]
Kd: 0.57 µM
